Test results: patent publication US7074459B2, “Method for preserving wood” (priority 2003, dated 2006)

Legend:
Type in all cases: cell-based
[1] = tested on: Staphylococcus aureous (gram positive); experiment: Bacteriostatic activity in Oxoid No. 2 nutrient broth; conditions: 0.1 wt. %, 48 hours incubation
Experimental: (§1) The bacteriostatic activity of several complexes was investigated by testing at 0.1 wt. % using Oxoid No. 2 nutrient broth and inoculating the broth with 1 ml of a 24 hour broth culture of the test organisms. After incubation at the optimum growth temperature of the organism for 48 hours.
(§2) The organisms tested were:
Staphylococcus aureous (gram positive)

[2] = tested on: Pseudomonas aeruginosa (gram negative); experiment: as above; conditions: 0.1 wt. %, 48 hours incubation
Experimental: as §1, §2
Pseudomonas aeruginosa (gram negative)

[3] = tested on: Escherichia coli (gram negative); experiment: as above; conditions: 0.1 wt. %, 48 hours incubation
Experimental: as §1, §2
Escherichia coli (gram negative)

[4] = tested on: brown-rot fungus Gloeophyllum trabeum; experiment: ASTM 1413 standard soil block test, 12 weeks; conditions: 1% treatment, unleached, 12-week soil block test with G. trabeum
Experimental: The following five wood preservatives were prepared for testing according to ASTM Stanard D 1413. • 1. chlorhexidine (CH)—Omadine^a 1:2 complex • 2. Polyhexamethylene biguanide—Omadine 1:1 complex • 3. Bardac^b 2250—Omadine 1:1 complex • 4. Tetrakis(hydroxylmethyl)phosphonium 0 Omadine 1:1 complex • 5. B-55^c polyionene—Omadine 1:2 complex • a) Omadine is 2-mercapto pyridine N-oxide • b) Barclac 2250 is […] • c) […] is poly(oxyethylene(dimethyliminio)ethylene(dimethylimino)ethylene dichloride Biological Evaluation
The ASTM 1413 standard soil block test was performed (ASTM 1999) Five soil bottles of each treatment and solution concentration (plus untreated controls) were exposed to the brown-rot fungus Gloeophyllum trabeum for 12 weeks. Two soil bottles with no fungus were also run to monitor any leaching of chemicals. Specimens were removed from test after 12 weeks exposure and conditioned until constant weight in the conditioning room (27° C./30°RH). The extent of decay was determined by weight loss.

Compound	bacteriostatic activity [1]	bacteriostatic activity [2]	bacteriostatic activity [3]	Wt. Loss % (Fungus) [4] [%]
N=C(NCCCCCCNC(=N)NC(=N)Nc1ccc(Cl)cc1)NC(=N)Nc1ccc(Cl)cc1.On1ccccc1=S.On1ccccc1=S [Compound 6, chlorhexidinium di(2-mercapto-pyridine N-oxides)]	bacteriostatic	bacteriostatic	bacteriostatic	1.57
N=C(NCCCCCCNC(=N)NC(=N)Nc1ccc(Cl)cc1)NC(=N)Nc1ccc(Cl)cc1.Oc1cc(Cl)ccc1Oc1ccc(Cl)cc1Cl.Oc1cc(Cl)ccc1Oc1ccc(Cl)cc1Cl [Compound 10, chlorhexidinium di (triclosante)]	bacteriostatic	bacteriostatic	bacteriostatic	
didecyldimethyl ammonium 2-mercapto-benzothiazole [Compound 5]	bacteriostatic	bacteriostatic	bacteriostatic	
OC[P+](CO)(CO)CO.[O-][n+]1ccccc1[S-] [Compound 8]	bacteriostatic	bacteriostatic	bacteriostatic	−0.07
